In patent US12145944B2, “Imidazopyrimidines as EED inhibitors and the use thereof” (THE REGENTS OF THE UNIVERSITY OF MICHIGAN, priority 2019, dated 2024):
pIC50: −log10 of the molar value.

System: KARPAS422 human B cell lymphoma cell
Assay: Cell proliferation, KARPAS422, 7 day treatment (WST-8)
Type: cell-based
Settings: Homo sapiens, KARPAS-422, 168 h, anti-proliferative IC50, Karpas 422 cell line, 7 day treatment; read-out: Karpas Cell line
Description: “N/A” stands for “not assessed”.
Analysis of Cell Proliferation:
To assess the effect of PRC2 inhibition on cell growth, cells were seeded in 96-well cell culture plates at a density of 2 000-3 000 cells/well in 200 µL of culture medium, and treated with serially diluted compounds for 7 days at 37° C. in an atmosphere of 5% CO2. Cell growth was evaluated by a […] WST-8 assay (Dojindo Molecular Technologies) using a Tecan Infinite M1000 multimode microplate reader (Tecan, Morrisville, NC). The WST-8 reagent was added to the plate, incubated for 1-4 h, and read at 450 nm. The readings were normalized to the DMSO-treated cells, and the IC50 was calculated by nonlinear regression analysis using GraphPad Prism 6 software

Compound	pIC50
CCOC(=O)c1ncn2c(NCc3ccccc3OC)ncc(-c3ccccc3)c12 [compound 129, ethyl 5-((2-methoxybenzyl)amino)-8-phenylimidazo[1,5-c]pyrimidine-1-carboxylate]	< 7.00
CCOC(=O)c1ncn2c(NCc3c(F)cccc3OC)ncc(-c3ccccc3)c12 [compound 130, ethyl 5-((2-fluoro-6-methoxybenzyl)amino)-8-phenylimidazo[1,5-c]pyrimidine-1-carboxylate]	< 7.00
CCOC(=O)c1ncn2c(NCc3cc(OC)ccc3F)ncc(-c3ccccc3)c12 [compound 132, ethyl 5-((2-fluoro-5-methoxybenzyl)amino)-8-phenylimidazo[1,5-c]pyrimidine-1-carboxylate]	< 7.00
CCOC(=O)c1ncn2c(NCc3c(F)ccc(OC)c3Cl)ncc(-c3ccccc3)c12 [compound 133, ethyl 5-((2-chloro-6-fluoro-3-methoxybenzyl)amino)-8-phenylimidazo[1,5-c]pyrimidine-1-carboxylate]	< 7.00
CCOC(=O)c1ncn2c(NCc3cccc4c3OCO4)ncc(-c3ccccc3)c12 [compound 134, ethyl 5-((benzo[d][1,3]dioxol-4-ylmethyl)amino)-8-phenylimidazo[1,5-c]pyrimidine-1-carboxylate]	< 7.00
CNC(=O)c1ncn2c(NCc3ccccc3OC)ncc(-c3ccccc3)c12 [compound 136, 5-((2-methoxybenzyl)amino)-N-methyl-8-phenylimidazo[1,5-c]pyrimidine-1-carboxamide]	< 7.00
CNC(=O)c1ncn2c(NCc3c(F)cccc3OC)ncc(-c3ccccc3)c12 [compound 137, 5-((2-fluoro-6-methoxybenzyl)amino)-N-methyl-8-phenylimidazo[1,5-c]pyrimidine-1-carboxamide]	< 7.00
CNC(=O)c1ncn2c(NCc3c(F)ccc(F)c3OC)ncc(-c3ccccc3)c12 [compound 138, 5-((3,6-difluoro-2-methoxybenzyl)amino)-N-methyl-8-phenylimidazo[1,5-c]pyrimidine-1-carboxamide]	< 7.00
CNC(=O)c1ncn2c(NCc3cc(OC)ccc3F)ncc(-c3ccccc3)c12 [compound 139, 5-((2-fluoro-5-methoxybenzyl)amino)-N-methyl-8-phenylimidazo[1,5-c]pyrimidine-1-carboxamide]	< 7.00
CNC(=O)c1ncn2c(NCc3c(F)ccc(OC)c3Cl)ncc(-c3ccccc3)c12 [compound 140, 5-((2-chloro-6-fluoro-3-methoxybenzyl)amino)-N-methyl-8-phenylimidazo[1,5-c]pyrimidine-1-carboxamide]	< 7.00

More lines, now with the values ahead:

pIC50	Compound
8.79	O=C1c2ncn3c(NCc4c(F)ccc5c4CCO5)ncc(c23)-c2ccc(C(F)(F)F)cc2CN1CCF [compound 61, 12-(((5-fluoro-2,3-dihydrobenzofuran-4-yl)methyl)amino)-4-(2-fluoroethyl)-7-(trifluoromethyl)-4,5-dihydro-3H-2,4,11,12a-tetraazabenzo[4,5]cycloocta[1,2,3-cd]inden-3-one]
8.31	CC(C)(F)CN1Cc2cc(C(F)(F)F)ccc2-c2cnc(NCc3c(F)ccc4c3CCO4)n3cnc(c23)C1=O [compound 62, 12-(((5-fluoro-2,3-dihydrobenzofuran-4-yl)methyl)amino)-4-(2-fluoro-2-methylpropyl)-7-(trifluoromethyl)-4,5-dihydro-3H-2,4,11,12a-tetraazabenzo[4,5]cycloocta[1,2,3-cd]inden-3-one]
8.43	CC(F)(F)CN1Cc2cc(C(F)(F)F)ccc2-c2cnc(NCc3c(F)ccc4c3CCO4)n3cnc(c23)C1=O [compound 63, 4-(2,2-difluoropropyl)-12-(((5-fluoro-2,3-dihydrobenzofuran-4-yl)methyl)amino)-7-(trifluoromethyl)-4,5-dihydro-3H-2,4,11,12a-tetraazabenzo[4,5]cycloocta[1,2,3-cd]inden-3-one]
9.13	O=C1c2ncn3c(NCc4c(F)ccc5c4CCO5)ncc(c23)-c2ccc(C(F)(F)F)cc2CN1CC1CCOCC1 [compound 66, 12-(((5-fluoro-2,3-dihydrobenzofuran-4-yl)methyl)amino)-4-((tetrahydro-2H-pyran-4-yl)methyl)-7-(trifluoromethyl)-4,5-dihydro-3H-2,4,11,12a-tetraazabenzo[4,5]cycloocta[1,2,3-cd]inden-3-one]
8.11	O=C1c2ncn3c(NCc4c(F)ccc5c4CCO5)ncc(c23)-c2ccc(C(F)(F)F)cc2CN1C1CC1 [compound 67, 4-cyclopropyl-12-(((5-fluoro-2,3-dihydrobenzofuran-4-yl)methyl)amino)-7-(trifluoromethyl)-4,5-dihydro-3H-2,4,11,12a-tetraazabenzo[4,5]cycloocta[1,2,3-cd]inden-3-one]
8.87	O=C1c2ncn3c(NCc4c(F)ccc5c4CCO5)ncc(c23)-c2ccc(C(F)(F)F)cc2CN1CC1COCCO1 (stereo not shown) [compound 68, 4-((1,4-dioxan-2-yl)methyl)-12-(((5-fluoro-2,3-dihydrobenzofuran-4-yl)methyl)amino)-7-(trifluoromethyl)-4,5-dihydro-3H-2,4,11,12a-tetraazabenzo[4,5]cycloocta[1,2,3-cd]inden-3-one]
< 7.00	COc1cccc(F)c1CNc1ncc2c3c(ncn13)C(=O)N(C1CC1)Cc1nc(C(F)(F)F)ccc1-2 [compound 69, 4-cyclopropyl-12-((2-fluoro-6-methoxybenzyl)amino)-7-(trifluoromethyl)-4,5-dihydro-3H-2,4,6,11,12a-pentaazabenzo[4,5]cycloocta[1,2,3-cd]inden-3-one]
< 7.00	COc1cccc(F)c1CNc1ncc2c3c(ncn13)C(=O)N(C1CC1)Cc1cc(C(F)(F)F)ncc1-2 [compound 70, 4-cyclopropyl-12-((2-fluoro-6-methoxybenzyl)amino)-7-(trifluoromethyl)-4,5-dihydro-3H-2,4,8,11,12a-pentaazabenzo[4,5]cycloocta[1,2,3-cd]inden-3-one]
< 7.00	COc1cccc(F)c1CNc1ncc2c3c(ncn13)C(=O)N(C(C)C)Cc1nc(C(F)(F)F)ccc1-2 [compound 71, 12-((2-fluoro-6-methoxybenzyl)amino)-4-isopropyl-7-(trifluoromethyl)-4,5-dihydro-3H-2,4,6,11,12a-pentaazabenzo[4,5]cycloocta[1,2,3-cd]inden-3-one]
8.41	O=C1c2ncn3c(NCc4c(F)ccc5c4CCO5)ncc(c23)-c2cnc(C(F)(F)F)cc2CN1CCF [compound 72, 12-(((5-fluoro-2,3-dihydrobenzofuran-4-yl)methyl)amino)-4-(2-fluoroethyl)-7-(trifluoromethyl)-4,5-dihydro-3H-2,4,8,11,12a-pentaazabenzo[4,5]cycloocta[1,2,3-cd]inden-3-one]
7.95	CC(C)N1Cc2cc(C(F)(F)F)ncc2-c2cnc(NCc3c(F)ccc4c3CCO4)n3cnc(c23)C1=O [compound 73, 12-(((5-fluoro-2,3-dihydrobenzofuran-4-yl)methyl)amino)-4-isopropyl-7-(trifluoromethyl)-4,5-dihydro-3H-2,4,8,11,12a-pentaazabenzo[4,5]cycloocta[1,2,3-cd]inden-3-one]
7.33	CN1CCC(N2Cc3cc(C(F)(F)F)ccc3-c3cnc(NCc4c(F)ccc5c4CCO5)n4cnc(c34)C2=O)CC1 [compound 74, 12-(((5-fluoro-2,3-dihydrobenzofuran-4-yl)methyl)amino)-4-(1-methylpiperidin-4-yl)-7-(trifluoromethyl)-4,5-dihydro-3H-2,4,11,12a-tetraazabenzo[4,5]cycloocta[1,2,3-cd]inden-3-one]
7.65	CC(F)(F)CN1Cc2nc(C(F)(F)F)ccc2-c2cnc(NCc3c(F)ccc4c3CCO4)n3cnc(c23)C1=O [compound 77, 4-(2,2-difluoropropyl)-12-(((5-fluoro-2,3-dihydrobenzofuran-4-yl)methyl)amino)-7-(trifluoromethyl)-4,5-dihydro-3H-2,4,6,11,12a-pentaazabenzo[4,5]cycloocta[1,2,3-cd]inden-3-one]
8.84	O=C1c2ncn3c(NCc4c(F)ccc5c4CCO5)ncc(c23)-c2ccc(C(F)(F)F)cc2CN1CC(F)F [compound 81, 4-(2,2-difluoroethyl)-12-(((5-fluoro-2,3-dihydrobenzofuran-4-yl)methyl)amino)-7-(trifluoromethyl)-4,5-dihydro-3H-2,4,11,12a-tetraazabenzo[4,5]cycloocta[1,2,3-cd]inden-3-one]
8.15	CCOC(=O)c1ncn2c(NCc3c(F)ccc4c3CCO4)ncc(-c3ccccc3)c12 [compound 135, ethyl 5-(((5-fluoro-2,3-dihydrobenzofuran-4-yl)methyl)amino)-8-phenylimidazo[1,5-c]pyrimidine-1-carboxylate]

Same assay, conditions: Homo sapiens, KARPAS-422, 168 h, read-out: Karpas Cell line (nM)

IC50	Compound
1.88 nM	Cc1ccc(-c2cnc(NCc3c(F)ccc4c3CCO4)n3cnc(S(C)(=O)=O)c23)cn1 [compound 103, N-((5-fluoro-2,3-dihydrobenzofuran-4-yl)methyl)-8-(6-methylpyridin-3-yl)-1-(methylsulfonyl)imidazo[1,5-c]pyrimidin-5-amine]
10.8 nM	CS(=O)(=O)c1ccc(-c2cnc(NCc3c(F)ccc4c3CCO4)n3cnc(S(C)(=O)=O)c23)cn1 [compound 105, N-((5-fluoro-2,3-dihydrobenzofuran-4-yl)methyl)-1-(methylsulfonyl)-8-(6-(methylsulfonyl)pyridin-3-yl)imidazo[1,5-c]pyrimidin-5-amine]

Same assay, conditions: anti-proliferative IC50, Karpas 422 cell line, 7 day treatment; read-out: Karpas Cell line

pIC50	Compound
8.61	O=C1c2ncn3c(NCc4c(F)ccc5c4CCO5)ncc(c23)-c2ccc(F)cc2CN1C1CC1 [compound 64, 4-cyclopropyl-7-fluoro-12-(((5-fluoro-2,3-dihydrobenzofuran-4-yl)methyl)amino)-4,5-dihydro-3H-2,4,11,12a-tetraazabenzo[4,5]cycloocta[1,2,3-cd]inden-3-one]
